Key:
Test in all cases: KINOMEscan competition binding
Settings in all cases: compound 10.0 µM
GSK3B (human) = GSK3B (human) (UniProt P49841)
TNK1 (human) = TNK1 (human) (UniProt Q13470)
BMPR1B (human) = BMPR1B (human) (UniProt O00238)
DAPK3 (human) = DAPK3 (human) (UniProt O43293)
HIPK1 (human) = HIPK1 (human) (UniProt Q86Z02)
PKN1 (human) = PKN1 (human) (UniProt Q16512)
CAMK1G (human) = CAMK1G (human) (UniProt Q96NX5)
CHEK1 (human) = CHEK1 (human) (UniProt O14757)
MAPK10 (human) = MAPK10 (human) (UniProt P53779)
MAPK7 (human) = MAPK7 (human) (UniProt Q13164)
MKNK1 (human) = MKNK1 (human) (UniProt Q9BUB5)
RAF1 (human) = RAF1 (human) (UniProt P04049)
[1] = tested on: EGFR (human), P00533 [747-751 del / S ins]
PIM3 (human) = PIM3 (human) (UniProt Q86V86)
PAK4 (human) = PAK4 (human) (UniProt O96013)
ERN1 (human) = ERN1 (human) (UniProt O75460)
SNRK (human) = SNRK (human) (UniProt Q9NRH2)
FGFR3 (human) = FGFR3 (human) (UniProt P22607)
CDK4 CCND1 (human) = CDK4 CCND1 (human) (UniProt P11802+P24385)
TNNI3K (human) = TNNI3K (human) (UniProt Q59H18)
PLK3 (human) = PLK3 (human) (UniProt Q9H4B4)
PTK2 (human) = PTK2 (human) (UniProt Q05397)
EPHA5 (human) = EPHA5 (human) (UniProt P54756)
CLK1 (human) = CLK1 (human) (UniProt P49759)
ROCK2 (human) = ROCK2 (human) (UniProt O75116)
PRKCD (human) = PRKCD (human) (UniProt Q05655)
ULK1 (human) = ULK1 (human) (UniProt O75385)
BLK (human) = BLK (human) (UniProt P51451)
WEE2 (human) = WEE2 (human) (UniProt P0C1S8)
MAP4K3 (human) = MAP4K3 (human) (UniProt Q8IVH8)
PRKD1 (human) = PRKD1 (human) (UniProt Q15139)
MAP3K4 (human) = MAP3K4 (human) (UniProt Q9Y6R4)
MAP2K1 (human) = MAP2K1 (human) (UniProt Q02750)
LATS2 (human) = LATS2 (human) (UniProt Q9NRM7)
DCLK2 (human) = DCLK2 (human) (UniProt Q8N568)
CSNK1G3 (human) = CSNK1G3 (human) (UniProt Q9Y6M4)
EPHB2 (human) = EPHB2 (human) (UniProt P29323)
KDR (human) = KDR (human) (UniProt P35968)
ULK3 (human) = ULK3 (human) (UniProt Q6PHR2)
CDK13 (human) = CDK13 (human) (UniProt Q14004)

Chain of MAPK10 (human) (P53779 whole entry, looked up): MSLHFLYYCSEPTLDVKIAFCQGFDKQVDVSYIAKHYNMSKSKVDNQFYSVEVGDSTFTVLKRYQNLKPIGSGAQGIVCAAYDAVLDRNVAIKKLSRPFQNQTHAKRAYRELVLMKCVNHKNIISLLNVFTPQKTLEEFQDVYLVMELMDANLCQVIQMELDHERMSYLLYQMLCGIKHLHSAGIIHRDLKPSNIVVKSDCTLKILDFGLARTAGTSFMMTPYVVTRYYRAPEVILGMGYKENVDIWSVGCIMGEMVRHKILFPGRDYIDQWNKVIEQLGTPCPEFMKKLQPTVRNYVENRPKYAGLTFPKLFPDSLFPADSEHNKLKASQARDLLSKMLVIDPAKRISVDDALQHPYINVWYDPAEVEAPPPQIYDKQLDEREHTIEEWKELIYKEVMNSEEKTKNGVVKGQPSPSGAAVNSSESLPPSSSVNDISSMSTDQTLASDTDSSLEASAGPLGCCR
Chain of ULK3 (human) (Q6PHR2 whole entry, looked up): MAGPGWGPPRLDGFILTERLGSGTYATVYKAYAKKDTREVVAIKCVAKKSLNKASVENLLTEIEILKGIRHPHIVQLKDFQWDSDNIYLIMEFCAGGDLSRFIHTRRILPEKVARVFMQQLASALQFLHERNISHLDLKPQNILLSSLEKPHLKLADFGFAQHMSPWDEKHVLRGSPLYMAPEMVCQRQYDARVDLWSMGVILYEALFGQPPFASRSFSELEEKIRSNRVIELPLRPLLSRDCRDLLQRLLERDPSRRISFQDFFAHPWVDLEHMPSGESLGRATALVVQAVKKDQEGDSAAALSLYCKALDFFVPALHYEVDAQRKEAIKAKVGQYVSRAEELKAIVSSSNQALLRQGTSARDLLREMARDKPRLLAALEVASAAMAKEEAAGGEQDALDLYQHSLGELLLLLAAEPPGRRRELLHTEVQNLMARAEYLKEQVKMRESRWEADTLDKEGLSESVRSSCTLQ
Chain of CSNK1G3 (human) (Q9Y6M4 whole entry, looked up): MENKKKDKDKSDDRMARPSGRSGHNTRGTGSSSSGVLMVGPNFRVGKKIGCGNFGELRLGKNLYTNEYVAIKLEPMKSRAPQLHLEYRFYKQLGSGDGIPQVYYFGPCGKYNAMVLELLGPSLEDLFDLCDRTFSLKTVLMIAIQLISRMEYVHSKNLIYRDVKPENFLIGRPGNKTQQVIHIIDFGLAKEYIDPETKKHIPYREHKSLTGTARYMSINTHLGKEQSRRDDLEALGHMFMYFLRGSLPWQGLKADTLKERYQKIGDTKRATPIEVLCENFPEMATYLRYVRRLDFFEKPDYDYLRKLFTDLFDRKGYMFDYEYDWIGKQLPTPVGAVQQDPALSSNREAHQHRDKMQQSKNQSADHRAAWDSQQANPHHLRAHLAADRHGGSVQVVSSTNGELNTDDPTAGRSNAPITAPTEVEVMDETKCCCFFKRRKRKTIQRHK
Chain of MKNK1 (human) (Q9BUB5 whole entry, looked up): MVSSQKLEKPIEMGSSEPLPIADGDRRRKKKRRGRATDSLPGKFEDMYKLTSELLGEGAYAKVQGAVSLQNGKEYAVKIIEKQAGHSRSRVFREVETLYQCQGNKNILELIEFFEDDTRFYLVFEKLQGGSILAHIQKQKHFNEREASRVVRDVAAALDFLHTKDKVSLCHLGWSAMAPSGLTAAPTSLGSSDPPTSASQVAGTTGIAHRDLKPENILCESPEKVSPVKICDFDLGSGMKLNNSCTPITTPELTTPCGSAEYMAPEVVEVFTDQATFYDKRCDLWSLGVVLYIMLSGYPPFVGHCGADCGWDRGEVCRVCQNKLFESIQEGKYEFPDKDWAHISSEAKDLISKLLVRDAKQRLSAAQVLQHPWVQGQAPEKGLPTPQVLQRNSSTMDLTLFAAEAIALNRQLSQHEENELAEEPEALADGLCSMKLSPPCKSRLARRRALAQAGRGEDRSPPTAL
Chain of KDR (human) (P35968 whole entry, looked up): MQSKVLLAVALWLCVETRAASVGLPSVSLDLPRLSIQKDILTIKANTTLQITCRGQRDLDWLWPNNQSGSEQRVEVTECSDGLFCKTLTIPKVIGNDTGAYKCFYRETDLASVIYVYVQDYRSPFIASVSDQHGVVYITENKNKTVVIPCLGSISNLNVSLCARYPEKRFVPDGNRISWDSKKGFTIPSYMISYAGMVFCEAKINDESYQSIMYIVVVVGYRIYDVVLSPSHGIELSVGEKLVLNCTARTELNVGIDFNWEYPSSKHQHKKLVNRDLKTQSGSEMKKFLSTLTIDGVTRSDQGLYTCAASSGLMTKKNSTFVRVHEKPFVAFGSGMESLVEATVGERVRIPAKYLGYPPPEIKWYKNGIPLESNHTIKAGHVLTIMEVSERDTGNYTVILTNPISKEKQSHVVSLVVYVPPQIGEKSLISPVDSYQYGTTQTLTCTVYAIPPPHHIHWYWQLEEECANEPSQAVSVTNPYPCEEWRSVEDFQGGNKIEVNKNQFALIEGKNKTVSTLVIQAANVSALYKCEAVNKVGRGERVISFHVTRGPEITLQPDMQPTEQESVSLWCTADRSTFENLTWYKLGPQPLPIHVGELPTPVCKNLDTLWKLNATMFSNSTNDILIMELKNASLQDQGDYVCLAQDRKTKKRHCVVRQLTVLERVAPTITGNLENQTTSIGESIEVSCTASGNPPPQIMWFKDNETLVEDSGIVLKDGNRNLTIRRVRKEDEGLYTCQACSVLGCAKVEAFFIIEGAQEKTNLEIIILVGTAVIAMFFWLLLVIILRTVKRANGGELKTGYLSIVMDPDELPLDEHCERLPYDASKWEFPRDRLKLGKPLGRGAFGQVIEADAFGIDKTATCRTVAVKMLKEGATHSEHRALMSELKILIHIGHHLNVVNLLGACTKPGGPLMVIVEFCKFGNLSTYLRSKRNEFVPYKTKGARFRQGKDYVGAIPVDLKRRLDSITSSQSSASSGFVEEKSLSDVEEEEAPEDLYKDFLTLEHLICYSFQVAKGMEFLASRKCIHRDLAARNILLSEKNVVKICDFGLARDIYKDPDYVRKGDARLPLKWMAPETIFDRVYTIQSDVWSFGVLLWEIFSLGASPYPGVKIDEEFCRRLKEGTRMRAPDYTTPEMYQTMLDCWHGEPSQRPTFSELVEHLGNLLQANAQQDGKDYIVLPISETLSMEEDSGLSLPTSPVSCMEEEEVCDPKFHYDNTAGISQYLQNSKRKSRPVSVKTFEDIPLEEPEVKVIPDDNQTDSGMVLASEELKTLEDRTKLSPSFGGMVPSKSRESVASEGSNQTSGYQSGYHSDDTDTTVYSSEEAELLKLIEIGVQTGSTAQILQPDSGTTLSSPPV
Chain of RAF1 (human) (P04049 whole entry, looked up): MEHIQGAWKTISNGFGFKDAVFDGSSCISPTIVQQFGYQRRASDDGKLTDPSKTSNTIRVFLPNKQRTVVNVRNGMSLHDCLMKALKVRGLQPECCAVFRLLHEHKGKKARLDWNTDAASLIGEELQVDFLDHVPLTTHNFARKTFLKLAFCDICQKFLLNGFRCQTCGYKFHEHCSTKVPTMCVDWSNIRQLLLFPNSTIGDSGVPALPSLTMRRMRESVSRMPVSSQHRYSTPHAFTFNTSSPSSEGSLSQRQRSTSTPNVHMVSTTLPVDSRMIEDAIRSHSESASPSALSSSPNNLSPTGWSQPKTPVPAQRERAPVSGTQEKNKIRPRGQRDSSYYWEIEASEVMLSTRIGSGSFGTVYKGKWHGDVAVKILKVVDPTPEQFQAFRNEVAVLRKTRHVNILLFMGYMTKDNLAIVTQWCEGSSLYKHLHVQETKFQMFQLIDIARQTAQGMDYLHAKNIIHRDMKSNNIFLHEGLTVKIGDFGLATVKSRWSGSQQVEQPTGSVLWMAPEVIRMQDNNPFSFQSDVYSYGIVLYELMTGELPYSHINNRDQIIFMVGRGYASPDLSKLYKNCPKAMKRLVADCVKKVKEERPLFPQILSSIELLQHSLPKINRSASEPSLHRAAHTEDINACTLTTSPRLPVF
Chain of SNRK (human) (Q9NRH2 whole entry, looked up): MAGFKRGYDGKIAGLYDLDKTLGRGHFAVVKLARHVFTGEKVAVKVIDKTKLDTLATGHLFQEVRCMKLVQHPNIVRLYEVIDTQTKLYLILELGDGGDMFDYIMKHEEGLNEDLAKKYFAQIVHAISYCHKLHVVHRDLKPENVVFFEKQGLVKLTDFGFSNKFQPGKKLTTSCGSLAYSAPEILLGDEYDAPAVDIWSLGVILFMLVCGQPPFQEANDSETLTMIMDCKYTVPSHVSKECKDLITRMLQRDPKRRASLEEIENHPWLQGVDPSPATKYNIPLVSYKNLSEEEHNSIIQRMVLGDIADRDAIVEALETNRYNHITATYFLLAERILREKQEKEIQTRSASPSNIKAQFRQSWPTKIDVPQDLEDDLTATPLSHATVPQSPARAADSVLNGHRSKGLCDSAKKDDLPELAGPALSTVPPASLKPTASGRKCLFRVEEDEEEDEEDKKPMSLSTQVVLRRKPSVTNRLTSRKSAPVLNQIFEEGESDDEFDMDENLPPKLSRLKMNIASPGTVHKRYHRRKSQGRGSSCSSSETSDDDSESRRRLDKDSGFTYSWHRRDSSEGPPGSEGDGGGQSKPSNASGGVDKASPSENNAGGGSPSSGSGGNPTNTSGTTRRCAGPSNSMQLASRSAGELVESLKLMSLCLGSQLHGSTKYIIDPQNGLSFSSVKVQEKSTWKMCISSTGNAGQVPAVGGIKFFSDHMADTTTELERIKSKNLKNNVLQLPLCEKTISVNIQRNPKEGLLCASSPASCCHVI
Chain of GSK3B (human) (P49841 whole entry, looked up): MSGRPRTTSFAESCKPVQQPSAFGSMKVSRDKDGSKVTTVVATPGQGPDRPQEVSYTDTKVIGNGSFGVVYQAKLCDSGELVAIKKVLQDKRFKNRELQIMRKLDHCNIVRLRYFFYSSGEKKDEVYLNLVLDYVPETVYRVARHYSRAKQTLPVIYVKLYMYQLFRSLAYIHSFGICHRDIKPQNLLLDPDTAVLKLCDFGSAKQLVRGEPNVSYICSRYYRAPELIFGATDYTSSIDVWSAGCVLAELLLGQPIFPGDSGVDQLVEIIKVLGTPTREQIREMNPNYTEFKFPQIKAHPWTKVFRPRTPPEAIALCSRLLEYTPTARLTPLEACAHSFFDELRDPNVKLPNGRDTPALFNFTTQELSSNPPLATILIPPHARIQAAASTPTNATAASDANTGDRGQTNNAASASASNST

Row | SMILES | kinase still bound, per cent of control (GSK3B (human)) [%] | kinase still bound, per cent of control (TNK1 (human)) [%] | kinase still bound, per cent of control (BMPR1B (human)) [%] | kinase still bound, per cent of control (DAPK3 (human)) [%] | kinase still bound, per cent of control (HIPK1 (human)) [%] | kinase still bound, per cent of control (PKN1 (human)) [%] | kinase still bound, per cent of control (CAMK1G (human)) [%] | kinase still bound, per cent of control (CHEK1 (human)) [%] | kinase still bound, per cent of control (MAPK10 (human)) [%] | kinase still bound, per cent of control (MAPK7 (human)) [%] | kinase still bound, per cent of control (MKNK1 (human)) [%] | kinase still bound, per cent of control (RAF1 (human)) [%] | kinase still bound, per cent of control [1] [%] | kinase still bound, per cent of control (PIM3 (human)) [%] | kinase still bound, per cent of control (PAK4 (human)) [%] | kinase still bound, per cent of control (ERN1 (human)) [%] | kinase still bound, per cent of control (SNRK (human)) [%] | kinase still bound, per cent of control (FGFR3 (human)) [%] | kinase still bound, per cent of control (CDK4 CCND1 (human)) [%] | kinase still bound, per cent of control (TNNI3K (human)) [%] | also measured
1 | CCN1CCN(C(=O)Cc2ccc(Nc3ncc(F)c(Nc4ccc(C(=O)Nc5ccccc5Cl)cc4)n3)cc2)CC1 | 61 | 1.3 | 22 | 5.2 | 3.2 | 56 | 39 | 100 | 0.8 | 100 | 100 | 81 | 47 | 67 | 47 | 91 | 89 | 20 | 34 | 24 | kinase still bound, per cent of control (PLK3 (human)): 82%; kinase still bound, per cent of control (PTK2 (human)): 28%; kinase still bound, per cent of control (EPHA5 (human)): 92%; kinase still bound, per cent of control (CLK1 (human)): 22%; kinase still bound, per cent of control (ROCK2 (human)): 75%; kinase still bound, per cent of control (PRKCD (human)): 60%; kinase still bound, per cent of control (ULK1 (human)): 28%; kinase still bound, per cent of control (BLK (human)): 28%; kinase still bound, per cent of control (WEE2 (human)): 12%; kinase still bound, per cent of control (MAP4K3 (human)): 42%; kinase still bound, per cent of control (PRKD1 (human)): 100%; kinase still bound, per cent of control (MAP3K4 (human)): 83%; kinase still bound, per cent of control (MAP2K1 (human)): 76%; kinase still bound, per cent of control (LATS2 (human)): 100%; kinase still bound, per cent of control (DCLK2 (human)): 88%; kinase still bound, per cent of control (CSNK1G3 (human)): 100%; kinase still bound, per cent of control (EPHB2 (human)): 93%; kinase still bound, per cent of control (KDR (human)): 16%; kinase still bound, per cent of control (ULK3 (human)): 1.5%; kinase still bound, per cent of control (CDK13 (human)): 100%
2 | COc1cc2ncnc(-n3nc(-c4ccccn4)nc3N)c2cc1OC | 100 | 11 | 14 | 4.6 | 0.55 | 100 | 34 | 100 | 1.4 | 83 | 51 | 59 | 77 | 7.6 | 72 | 46 | 47 | 84 | 47 | 80 | kinase still bound, per cent of control (PLK3 (human)): 33%; kinase still bound, per cent of control (PTK2 (human)): 80%; kinase still bound, per cent of control (EPHA5 (human)): 19%; kinase still bound, per cent of control (CLK1 (human)): 0.6%; kinase still bound, per cent of control (ROCK2 (human)): 20%; kinase still bound, per cent of control (PRKCD (human)): 76%; kinase still bound, per cent of control (ULK1 (human)): 6.6%; kinase still bound, per cent of control (BLK (human)): 8.8%; kinase still bound, per cent of control (WEE2 (human)): 100%; kinase still bound, per cent of control (MAP4K3 (human)): 53%; kinase still bound, per cent of control (PRKD1 (human)): 88%; kinase still bound, per cent of control (MAP3K4 (human)): 100%; kinase still bound, per cent of control (MAP2K1 (human)): 64%; kinase still bound, per cent of control (LATS2 (human)): 11%; kinase still bound, per cent of control (DCLK2 (human)): 88%; kinase still bound, per cent of control (CSNK1G3 (human)): 20%; kinase still bound, per cent of control (EPHB2 (human)): 47%; kinase still bound, per cent of control (KDR (human)): 52%; kinase still bound, per cent of control (ULK3 (human)): 10%; kinase still bound, per cent of control (CDK13 (human)): 17%

Source: the kinase profiling compilation of Christmann-Franck et al. (2016)
